The source of these data is US20060111416A1, “Octahydropyrrolo[3,4-C]pyrrole derivatives” (priority 2004, published 2006).

pKi: −log10 of the molar value.

One may read the pKi as the Ki on a negative log10 scale, so that one unit is a factor of ten.

T1 sequence (Q9H3N8 whole entry): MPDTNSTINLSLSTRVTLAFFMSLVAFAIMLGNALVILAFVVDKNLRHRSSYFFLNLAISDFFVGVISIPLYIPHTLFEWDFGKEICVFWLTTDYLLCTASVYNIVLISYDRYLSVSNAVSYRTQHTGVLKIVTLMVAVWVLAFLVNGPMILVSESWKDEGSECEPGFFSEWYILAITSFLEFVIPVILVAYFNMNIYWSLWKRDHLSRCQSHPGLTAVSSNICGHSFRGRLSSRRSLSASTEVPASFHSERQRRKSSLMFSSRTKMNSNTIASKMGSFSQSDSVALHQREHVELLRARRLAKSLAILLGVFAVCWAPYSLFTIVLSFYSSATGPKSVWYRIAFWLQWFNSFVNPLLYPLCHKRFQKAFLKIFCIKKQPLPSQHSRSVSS

The assay concerns the target T1, histamine H4 receptor (Homo sapiens, UniProt Q9H3N8).
T1 construct: expressed in transfected cells; host or cells: CHO cells (membranes)
Kind of assay: H4 binding ([3H]-Histamine competition binding on CHO cell membranes). The conditions noted are these: [3H]-Histamine 3 nM, membranes of CHO cells expressing the histamine H4 receptor; Ki calculated from IC50 by Cheng-Prussoff. As to the method:
Cell pellets from CHO cells expressing the histamine H4 receptor were homogenised in ice-cold 50 mM Tris-HCl/0.5 mM CaCl2 buffer containing a protease inhibitor cocktail (Roche®, United Kingdom) using a ground glass homogeniser. Homogenates were centrifuged at 48000 g for 30 min at 4° C. The membrane pellet was resuspended in fresh buffer and the centrifugation step was repeated as described above. The membrane pellet was resuspended in 50 mM Tris-HCl in the same volume as the original cell pellet.
The reaction was terminated by rapid filtration through 0.5% polyethylenimine-soaked Unifilter GF/B plates (Packard) followed by three washes with 1 ml ice-cold 50 mM Tris-HCl. Filters were dried for 45 min at 45° C. and bound radiolabel was determined using scintillation counting techniques. Non-specific binding was defined with 5 μM clobenpropit.
In the case of `CN1C[C@@H]2CN(C(=O)c3nc4ccccc4[nH]3)C[C@@H]2C1` [Example 1, 2-{[(3aR,6aS)5-Methylhexahydropyrrolo[3,4-c]pyrrol-2(1H)-yl]carbonyl}-1H-benzimidazole], the pKi was 7.04.
Under `CN1C[C@@H]2CN(C(=O)c3nc4cc(F)ccc4[nH]3)C[C@@H]2C1` [Example 3, 5-Fluoro-2-{[(3aR,6aS)-5-methylhexahydropyrrolo[3,4-c]pyrrol-2(1H)-yl]carbonyl}-1H-benzimidazole] stands 7.09.
With `CN1C[C@@H]2CN(C(=O)c3cc4cc(Cl)ccc4[nH]3)C[C@@H]2C1` [Example 7, 5-Chloro-2-{[(3aR,6aS)-5-methylhexahydropyrrolo[3,4-c]pyrrol-2(1H)-yl]carbonyl}-1H-indole], the pKi was 7.80.
Under `CN1C[C@@H]2CN(C(=O)c3cc4cc(O)ccc4[nH]3)C[C@@H]2C1` [Example 15, 2-{[(3aR,6aS)-5-Methylhexahydropyrrolo[3,4-c]pyrrol-2(1H)-yl]carbonyl}-1H-indol-5-ol] stands 7.55.
Take `CN1C[C@@H]2CN(C(=O)c3cc4cc(F)ccc4[nH]3)C[C@@H]2C1` [Example 16, 5-Fluoro-2-{[(3aR,6aS)-5-methylhexahydropyrrolo[3,4-c]pyrrol-2(1H)-yl]carbonyl}-1H-indole]: the pKi is 7.70.
The figure for `Cc1ccc2[nH]c(C(=O)N3C[C@H]4CN(C)C[C@H]4C3)cc2c1` [Example 17, 5-Methyl-2-{[(3aR,6aS)-5-methylhexahydropyrrolo[3,4-c]pyrrol-2(1H)-yl]carbonyl}-1H-indole] is 7.08.
Under `CN1C[C@@H]2CN(C(=O)c3cc4cc(Br)ccc4[nH]3)C[C@@H]2C1` [Example 21, 5-Bromo-2-{[(3aR,6aS)-5-methylhexahydropyrrolo[3,4-c]pyrrol-2(1H)-yl]carbonyl}-1H-indole] stands 7.37; under `CN1C[C@@H]2CN(C(=O)c3cc4cccc(F)c4[nH]3)C[C@@H]2C1` [Example 22, 7-Fluoro-2-{[(3aR,6aS)-5-methylhexahydropyrrolo[3,4-c]pyrrol-2(1H)-yl]carbonyl}-1H-indole], 7.70.
Under `CN1C[C@@H]2CN(C(=O)c3nc4ccc(F)c(F)c4[nH]3)C[C@@H]2C1` [Example 25, 6,7-Difluoro-2-{[(3aR,6aS)-5-methylhexahydropyrrolo[3,4-c]pyrrol-2(1H)-yl]carbonyl}-1H-benzimidazole] stands 7.17; under `Cc1cccc2nc(C(=O)N3C[C@H]4CN(C)C[C@H]4C3)[nH]c12` [Example 26, 7-Methyl-2-{[(3aR,6aS)-5-methylhexahydropyrrolo[3,4-c]pyrrol-2(1H)-yl]carbonyl}-1H-benzimidazole], 6.96; under `CN1C[C@@H]2CN(C(=O)c3nc4cc(F)c(F)cc4[nH]3)C[C@@H]2C1` [Example 27, 5,6-Difluoro-2-{[(3aR,6aS)-5-methylhexahydropyrrolo[3,4-c]pyrrol-2(1H)-yl]carbonyl}-1H-benzimidazole], 6.93.
`Cc1c(F)ccc2nc(C(=O)N3C[C@H]4CN(C)C[C@H]4C3)[nH]c12` [Example 41, 5-fluoro-4-methyl-2-{[(3aR,6aS)-5-methylhexahydropyrrolo [3,4-c]pyrrol-2(1H)-yl]carbonyl}-1H-benzimidazole]: the pKi is 7.28.
The figure for `Cc1c(Cl)ccc2[nH]c(C(=O)N3C[C@H]4CN(C)C[C@H]4C3)nc12` [Example 48, 5-Chloro-4-methyl-2-{[(3aR,6aS)-5-methylhexahydropyrrolo[3,4-c]pyrrol-2(1H)-yl]carbonyl}-1H-benzimidazole] is 7.04.
The figure for `CN1C[C@@H]2CN(C(=O)c3nc4c(F)c(F)c(F)cc4[nH]3)C[C@@H]2C1` [Example 58, 4,5,6-Trifluoro-2-{[(3aR,6aS)-5-methylhexahydropyrrolo [3,4-c]pyrrol-2(1H)-yl]carbonyl}-1H-benzimidazole] is 7.00.
The figure for `CN1C[C@@H]2CN(C(=N)c3nc4cc(F)c(F)cc4[nH]3)C[C@@H]2C1` [Example 59, 1-(5,6-Difluoro-1H-benzimidazol-2-yl)-1-[(3aR,6aS)-5-methylhexahydropyrrolo[3,4-c]pyrrol-2(1H)-yl]methanimine] is 8.15; for `CN1C[C@@H]2CN(C(=N)c3nc4cc(F)ccc4[nH]3)C[C@@H]2C1` [Example 60, 1-(5-Fluoro-1H-benzimidazol-2-yl)-1-[(3aR,6aS)-5-methylhexahydropyrrolo[3,4-c]pyrrol-2(1H)-yl]methanimine] it is 8.22.
On to `CN1C[C@@H]2CN(C(=N)c3nc4c(F)c(F)ccc4[nH]3)C[C@@H]2C1` [Example 61, 1-(4,5-Difluoro-1H-benzimidazol-2-yl)-1-[(3aR, 6aS)-5-methylhexahydropyrrolo[3,4-c]pyrrol-2(1H)-yl]methanimine], for which the negative-log Ki (pKi) was 7.62.
Under `Cc1cccc2nc(C(=N)N3C[C@H]4CN(C)C[C@H]4C3)[nH]c12` [Example 62, 1-(4-Methyl-1H-benzimidazol-2-yl)-1-[(3aR, 6aS)-5-methylhexahydropyrrolo[3,4-c]pyrrol-2(1H)-yl]methanimine] stands 8.15; under `CN1C[C@@H]2CN(C(=N)c3nc4cc(F)cc(F)c4[nH]3)C[C@@H]2C1` [Example 63, 1-(4,6-Difluoro-1H-benzimidazol-2-yl)-1-[(3aR, 6aS)-5-methylhexahydropyrrolo[3,4-c]pyrrol-2(1H)-yl]methanimine], 7.33.
The figure for `Cc1c(F)ccc2nc(C(=N)N3C[C@H]4CN(C)C[C@H]4C3)[nH]c12` [Example 64, 1-(6-Fluoro-7-methyl-1H-benzimidazol-2-yl)-1-[(3aR, 6aS)-5-methylhexahydropyrrolo[3,4-c]pyrrol-2(1H)-yl]methanimine] is 8.40; for `Cc1c(Cl)ccc2nc(C(=N)N3C[C@H]4CN(C)C[C@H]4C3)[nH]c12` [Example 65, 1-(6-Chloro-7-methyl-1H-benzimidazol-2-yl)-1-[(3aR, 6aS)-5-methylhexahydropyrrolo[3,4-c]pyrrol-2(1H)-yl]methanimine] it is 7.92; for `CN1C[C@@H]2CN(C(=N)c3nc4cccc(F)c4[nH]3)C[C@@H]2C1` [Example 66, 1-(7-Fluoro-1H-benzimidazol-2-yl)-1-[(3aR, 6aS)-5-methylhexahydropyrrolo[3,4-c]pyrrol-2(1H)-yl]methanimine] it is 7.62.
`CN1C[C@@H]2CN(C(=N)c3nc4c(F)c(F)c(F)cc4[nH]3)C[C@@H]2C1` [Example 67, 1-[(3aR, 6aS)-5-Methylhexahydropyrrolo[3,4-c]pyrrol-2(1H)-yl]-1-(4,5,6-trifluoro-1H-benzimidazol-2-yl)methanimine]: the pKi was 7.22.
Under `CN1C[C@@H]2CN(C(=N)c3nc4cc(Cl)ccc4[nH]3)C[C@@H]2C1` [Example 68, 1-(5-Chloro-1H-benzimidazol-2-yl)-1-[(3aR, 6aS)-5-methylhexahydropyrrolo[3,4-c]pyrrol-2(1H)-yl]methanimine] stands 7.59.
